In patent publication US8362012B2, “Benzoxazine benzimidazole derivative, a pharmaceutical composition comprising the same, and a use thereof” (Daewoong Pharmaceutical Co., Ltd., priority 2008, dated 2013):

Experiments:
[1] = biological target: T1, human vanilloid-1 (hVR-1) in hVR-1-HEK293 cell line (Homo sapiens, UniProt Q8NER1); experiment: Inhibitory effect on calcium influx via a vanilloid receptor (capsaicin-stimulated, Fluo-3/AM); format: cell-based; details: hVR-1-HEK293 cells, 1 μM of capsaicin, compounds 0.015˜2000 nM; read-out: I.A. (inhibitory activity), IC50 on intracellular calcium influx
T1 construct: expressed in transfected cells; host or cells: HEK293 Tet-on strain, doxycycline-induced
Summary of the method: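 Doxycycline-induced (1 μg/mL, 2 days) hVR-1-HEK293 cells loaded with Fluo-3/AM for 90 min at 37° C, then stimulated with 1 μM capsaicin. Calcium influx expressed as background-corrected fluorescence relative to positive control, analysed by Hill equation and graded by activity criteria.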

ICR male mice = experiment: Phenyl-p-quinone (PBQ)-induced writhing experiment using mice; format: in vivo; details: orally administered, PBQ (0.02%) intraperitoneally after 1 hour, writhing counted for 10 min
Method: In order to evaluate the effect on pain of the compounds prepared in the Examples, behaviors such as twisting or writhing of body resulted from pain were verified by the phenyl-p-quinone (PBQ)-induced writhing experiment using mice. 5 week-old ICR male mice were used as experimental animals and PBQ (0.02%), as a chemical stimulator. The suspensions of 20 mg of the compounds of the present invention and an excipient such as Na—CMC (sodium carboxymethyl cellulose) in 10 mL of saline were used as test compounds. The test compounds were orally administered to the mice and after 1 hour, PBQ was intraperitoneally administrated in an amount of 10 mL per kg of body weight. Also, as a control group, equivalent amounts of BCTC were administered. The writhing number of each mouse was measured for 10 min starting from 5 min after the administration, and the analgesic effect was verified by counting the reduced number compared to the control group administered with only excipient and calculating the % inhibitory rate according to the following Formula 2. % inhibition rate=(writhing # of control group−writhing # of test group)/writhing # of control group×100 [Formula 2]

T1 sequence (Q8NER1 whole entry): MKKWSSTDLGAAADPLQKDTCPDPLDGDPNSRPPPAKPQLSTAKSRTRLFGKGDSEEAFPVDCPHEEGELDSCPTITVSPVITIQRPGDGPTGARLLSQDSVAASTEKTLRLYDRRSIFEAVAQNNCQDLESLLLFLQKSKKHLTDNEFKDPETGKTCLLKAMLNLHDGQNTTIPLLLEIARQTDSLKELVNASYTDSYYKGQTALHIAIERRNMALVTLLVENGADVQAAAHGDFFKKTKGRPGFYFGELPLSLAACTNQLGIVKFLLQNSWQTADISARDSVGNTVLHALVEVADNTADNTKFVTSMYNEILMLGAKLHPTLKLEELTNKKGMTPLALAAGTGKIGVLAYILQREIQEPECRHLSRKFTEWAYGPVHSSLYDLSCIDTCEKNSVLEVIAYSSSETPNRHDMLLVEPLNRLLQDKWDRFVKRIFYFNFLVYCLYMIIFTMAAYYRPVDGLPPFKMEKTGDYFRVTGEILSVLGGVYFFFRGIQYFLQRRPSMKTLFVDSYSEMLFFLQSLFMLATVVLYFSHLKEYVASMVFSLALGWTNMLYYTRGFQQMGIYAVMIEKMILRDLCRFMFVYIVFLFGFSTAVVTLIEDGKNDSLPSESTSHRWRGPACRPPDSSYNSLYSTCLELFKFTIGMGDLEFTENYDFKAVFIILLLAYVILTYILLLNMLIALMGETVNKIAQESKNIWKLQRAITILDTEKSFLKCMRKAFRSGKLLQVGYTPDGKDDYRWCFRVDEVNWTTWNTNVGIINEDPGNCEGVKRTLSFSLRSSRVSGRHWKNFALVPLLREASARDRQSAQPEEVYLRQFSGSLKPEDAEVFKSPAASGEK

Row | SMILES | IC50 [1] [nM] | I.A. (inhibitory activity), % inhibition rate of writhing (ICR male mice)
1 | C=Cc1ccc(N2c3cccc(-c4nc5cc(F)c(F)cc5[nH]4)c3OC[C@@H]2CO)nc1 [Example 69, [(S)-8-(5,6-difluoro-1H-benzimidazol-2-yl)-4-(5-vinyl-pyridin-2-yl)-3,4-dihydro-2H-benzo[1,4]oxazin-3-yl]-methanol] | 20 to 100 | +++ (51-80%)
2 | CCc1ccc(N2c3cccc(-c4nc5c(Cl)cc(C(F)(F)F)cc5[nH]4)c3OC[C@@H]2CO)nc1 [Example 80, [(S)-8-(4-chloro-6-trifluoromethyl-1H-benzimidazol-2-yl)-4-(5-ethyl-pyridin-2-yl)-3,4-dihydro-2H-benzo[1,4]oxazin-3-yl]-methanol] | < 20 | +++ (51-80%)
3 | CCc1ccc(N2c3cccc(-c4nc5c(Br)cc(C(F)(F)F)cc5[nH]4)c3OC[C@@H]2CO)nc1 [Example 81, [(S)-8-(4-bromo-6-trifluoromethyl-1H-benzimidazol-2-yl)-4-(5-ethyl-pyridin-2-yl)-3,4-dihydro-2H-benzo[1,4]oxazin-3-yl]-methanol] | < 20 | +++ (51-80%)
4 | CCc1ccc(N2c3cccc(-c4nc5ccc(OC(F)(F)F)cc5[nH]4)c3OC[C@@H]2CO)nc1 [Example 82, [(S)-4-(5-ethyl-pyridin-2-yl)-8-(6-trifluoromethoxy-1H-benzimidazol-2-yl)-3,4-dihydro-2H-benzo[1,4]oxazin-3-yl]-methanol] | 20 to 100 | +++ (51-80%)
5 | CCc1ccc(N2c3cccc(-c4nc5c(F)cc(Br)cc5[nH]4)c3OC[C@@H]2CO)nc1 [Example 85, [(S)-8-(6-bromo-4-fluoro-1H-benzimidazol-2-yl)-4-(5-ethyl-pyridin-2-yl)-3,4-dihydro-2H-benzo[1,4]oxazin-3-yl]-methanol] | 20 to 100 | +++ (51-80%)
6 | CCc1ccc(N2c3cccc(-c4nc5c(F)cc(F)cc5[nH]4)c3OC[C@@H]2CO)nc1 [Example 86, [(S)-8-(4,6-difluoro-1H-benzimidazol-2-yl)-4-(5-ethyl-pyridin-2-yl)-3,4-dihydro-2H-benzo[1,4]oxazin-3-yl]-methanol] | < 20 | +++ (51-80%)
7 | CCc1ccc(N2c3cccc(-c4nc5ccc(C#N)cc5[nH]4)c3OC[C@@H]2CO)nc1 [Example 87, 2-[(S)-4-(5-ethyl-pyridin-2-yl)-3-hydroxymethyl-3,4-dihydro-2H-benzo[1,4]oxazin-8-yl]-3H-benzimidazol-5-carbonitrile] | < 20 | +++ (51-80%)
8 | COC[C@H]1COc2c(-c3nc4ccc(C(C)(C)C)cc4[nH]3)cccc2N1c1ccc(C)cn1 [Example 88, (S)-8-(6-tert-butyl-1H-benzimidazol-2-yl)-3-methoxymethyl-4-(5-methyl-pyridin-2-yl)-3,4-dihydro-2H-benzo[1,4]oxazine] | < 20 | ++ (20˜50%)
9 | COC[C@H]1COc2c(-c3nc4ccc(Br)cc4[nH]3)cccc2N1c1ccc(C)cn1 [Example 89, (S)-8-(6-bromo-1H-benzimidazol-2-yl)-3-methoxymethyl-4-(5-methyl-pyridin-2-yl)-3,4-dihydro-2H-benzo[1,4]oxazine] | < 20 | +++ (51-80%)
10 | COC[C@H]1COc2c(-c3nc4ccc(C(F)(F)F)cc4[nH]3)cccc2N1c1ccc(C)cn1 [Example 90, (S)-3-methoxymethyl-4-(5-methyl-pyridin-2-yl)-8-(6-trifluoromethyl-1H-benzimidazol-2-yl)-3,4-dihydro-2H-benzo[1,4]oxazine] | < 20 | +++ (51-80%)
11 | COC[C@H]1COc2c(-c3nc4ccc(Cl)cc4[nH]3)cccc2N1c1ccc(C)cn1 [Example 91, (S)-3-methoxymethyl-4-(5-methyl-pyridin-2-yl)-8-(6-chloro-1H-benzimidazol-2-yl)-3,4-dihydro-2H-benzo[1,4]oxazine] | < 20 | ++ (20˜50%)
12 | COC[C@H]1COc2c(-c3nc4c(Cl)cc(C(F)(F)F)cc4[nH]3)cccc2N1c1ccc(C)cn1 [Example 92, (S)-8-(4-chloro-6-trifluoromethyl-1H-benzimidazol-2-yl)-3-methoxymethyl-4-(5-methyl-pyridin-2-yl)-3,4-dihydro-2H-benzo[1,4]oxazine] | < 20 | ++ (20˜50%)
13 | COC[C@H]1COc2c(-c3nc4c(Br)cc(C(F)(F)F)cc4[nH]3)cccc2N1c1ccc(C)cn1 [Example 93, (S)-8-(4-bromo-6-trifluoromethyl-1H-benzimidazol-2-yl)-3-methoxymethyl-4-(5-methyl-pyridin-2-yl)-3,4-dihydro-2H-benzo[1,4]oxazine] | < 20 | ++ (20˜50%)
14 | COC[C@H]1COc2c(-c3nc4c(F)cc(Br)cc4[nH]3)cccc2N1c1ccc(C)cn1 [Example 94, (S)-8-(6-bromo-4-fluoro-1H-benzimidazol-2-yl)-3-methoxymethyl-4-(5-methyl-pyridin-2-yl)-3,4-dihydro-2H-benzo[1,4]oxazine] | < 20 | +++ (51-80%)
15 | COC[C@H]1COc2c(-c3nc4cc(Cl)c(Cl)cc4[nH]3)cccc2N1c1ccc(C)cn1 [Example 95, (S)-8-(5,6-dichloro-1H-benzimidazol-2-yl)-3-methoxymethyl-4-(5-methyl-pyridin-2-yl)-3,4-dihydro-2H-benzo[1,4]oxazine] | < 20 | +++ (51-80%)
16 | COC[C@H]1COc2c(-c3nc4c(C(F)(F)F)cc(C(F)(F)F)cc4[nH]3)cccc2N1c1ccc(C)cn1 [Example 96, (S)-8-(4,6-bis-trifluoromethyl-1H-benzimidazol-2-yl)-3-methoxymethyl-4-(5-methyl-pyridin-2-yl)-3,4-dihydro-2H-benzo[1,4]oxazine] | < 20 | ++++ (>80%)
17 | COC[C@H]1COc2c(-c3nc4c(Br)cc(Br)cc4[nH]3)cccc2N1c1ccc(C)cn1 [Example 97, (S)-8-(4,6-dibromo-1H-benzimidazol-2-yl)-3-methoxymethyl-4-(5-methyl-pyridin-2-yl)-3,4-dihydro-2H-benzo[1,4]oxazine] | < 20 | ++ (20˜50%)
18 | COC[C@H]1COc2c(-c3nc4ccc(F)cc4[nH]3)cccc2N1c1ccc(C)cn1 [Example 98, (S)-8-(6-fluoro-1H-benzimidazol-2-yl)-3-methoxymethyl-4-(5-methyl-pyridin-2-yl)-3,4-dihydro-2H-benzo[1,4]oxazine] | 20 to 100 | ++ (20˜50%)
19 | COC[C@H]1COc2c(-c3nc4ccc(OC(F)(F)F)cc4[nH]3)cccc2N1c1ccc(C)cn1 [Example 99, (S)-3-methoxymethyl-4-(5-methyl-pyridin-2-yl)-8-(6-trifluoromethoxy-1H-benzimidazol-2-yl)-3,4-dihydro-2H-benzo[1,4]oxazine] | 20 to 100 | ++++ (>80%)
